Test results as given in the SangsterLogP compilation.

Assay: method code SF, from PMID: 17665861
Conditions: pH 7.4

logD | Structure (SMILES)
1.17 | O=C1Nc2ccccc2C12SC1C(=NNC1c1ccccc1Cl)N2c1ccccc1[N+](=O)[O-] (stereo not drawn)
1.31 | O=C1Nc2ccccc2C12SC1C(=NNC1c1ccccc1Cl)N2c1ccc(Cl)cc1 (stereo not drawn)
1.24 | O=C1Nc2ccccc2C12SC1C(=NNC1c1ccccc1)N2c1ccc(Br)cc1 (stereo not drawn)
1.1 | O=C1Nc2ccccc2C12SC1C(=NNC1c1ccccc1)N2c1ccc(Cl)cc1 (stereo not drawn)
1.4 | COc1ccc(C2NN=C3C2SC2(C(=O)Nc4ccccc42)N3c2ccc(Br)cc2)cc1 (stereo not drawn)
1.22 | O=C1Nc2ccccc2C12SC1C(=NNC1c1ccccc1Cl)N2c1ccccc1 (stereo not drawn)
1.25 | O=C1Nc2ccccc2C12SC1C(=NNC1c1ccccc1O)N2c1ccccc1 (stereo not drawn)
1.45 | O=C1Nc2ccccc2C12SC1C(=NNC1c1ccc([N+](=O)[O-])cc1)N2c1ccccc1[N+](=O)[O-] (stereo not drawn)
1.35 | O=C1Nc2ccccc2C12SC1C(=NNC1c1ccc([N+](=O)[O-])cc1)N2c1ccc(Br)cc1 (stereo not drawn)
1.41 | COc1ccc(C2NN=C3C2SC2(C(=O)Nc4ccccc42)N3c2ccc(Cl)cc2)cc1 (stereo not drawn)
1.23 | COc1ccc(C2NN=C3C2SC2(C(=O)Nc4ccccc42)N3c2ccccc2OC)cc1 (stereo not drawn)
1.19 | COc1ccccc1N1C2=NNC(c3ccccc3)C2SC12C(=O)Nc1ccccc12 (stereo not drawn)
1.2 | COc1ccc(C2NN=C3C2SC2(C(=O)Nc4ccccc42)N3c2cccc3ccccc23)cc1 (stereo not drawn)
1.14 | COc1ccccc1N1C2=NNC(c3ccccc3O)C2SC12C(=O)Nc1ccccc12 (stereo not drawn)
1.38 | O=C1Nc2ccccc2C12SC1C(=NNC1c1ccccc1O)N2c1ccc(Br)cc1 (stereo not drawn)
1.14 | O=C1Nc2ccccc2C12SC1C(=NNC1c1ccccc1)N2c1ccccc1[N+](=O)[O-] (stereo not drawn)
1.45 | O=C1Nc2ccccc2C12SC1C(=NNC1c1ccccc1Cl)N2c1ccc(Br)cc1 (stereo not drawn)
1.11 | COc1ccccc1N1C2=NNC(c3ccccc3[N+](=O)[O-])C2SC12C(=O)Nc1ccccc12 (stereo not drawn)
1.21 | O=C1Nc2ccccc2C12SC1C(=NNC1c1ccccc1Cl)N2c1cccc2ccccc12 (stereo not drawn)
1.31 | O=C1Nc2ccccc2C12SC1C(=NNC1c1ccc([N+](=O)[O-])cc1)N2c1ccc(Cl)cc1 (stereo not drawn)
1.26 | COc1ccccc1N1C2=NNC(c3ccc(Cl)cc3)C2SC12C(=O)Nc1ccccc12 (stereo not drawn)
1.17 | O=C1Nc2ccccc2C12SC1C(=NNC1c1ccccc1[N+](=O)[O-])N2c1cccc2ccccc12 (stereo not drawn)
1.35 | COc1ccc(C2NN=C3C2SC2(C(=O)Nc4ccccc42)N3c2ccccc2[N+](=O)[O-])cc1 (stereo not drawn)
